Legend:
Experiment in all cases: Test F preemergence/postemergence greenhouse plant response rating 0 to 100
blackgrass = format: in vivo, Alopecurus myosuroides; details: POSTEMERGENCE, 0 to 100 scale; for Blackgrass (1) plant response rating: stage (1) two to three leaves; for Blackgrass (2) plant response rating: stage (2) approximately four leaves or initial tillering
Text: (§1) Compounds evaluated in this test were formulated in a non-phytoxic solvent and applied to the soil surface before plant seedlings emerged (preemergence application) and to plants that were in the one-to-four leaf stage (postemergence application). A sandy loam soil was used for the preemergence test while a mixture of sandy loam soil and greenhouse potting mix in a 60:40 ratio was used for the postemergence test. Test compounds were applied within approximately one day after planting seeds for the preemergence test. Plantings of these crops and weed species were adjusted to produce plants of appropriate size for the postemergence test. All plant species were grown using normal greenhouse practices. Crop and weed species include winter barley (Hordeum vulgare cv. ‘Igri’), blackgrass (Alopecurus myosuroides), chickweed (Stellaria media), downy brome (Bromus tectorum), field violet (Viola arvensis), galium (Galium aparine), green foxtail (Setaria viridis), kochia (Kochia scoparia), lambsquarters (Chenopodium album), speedwell (Veronica persica), rape (Brassica napus), ryegrass (Lolium multiflorum), sugar beet (Beta vulgaris cv. ‘USl’), sunflower (Helianthus annuus cv. ‘Russian Giant’), spring wheat (Triticum aestivum cv. ‘ERA’), winter wheat (Triticum aestivum cv. ‘Talent’), wild buckwheat (Polygonum convolvulus), wild mustard (Sinapis arvensis), wild oat (Avena fatua), and wild radish (Raphanus raphanistrum). Blackgrass, galium and wild oat were treated at two growth stages. […] Treated plants and untreated controls were maintained in a greenhouse for approximately 21 to 28 days, after which all treated plants were compared to untreated controls and visually evaluated. […] A dash response (-) means no test result.

winter wheat = format: in vivo, Triticum aestivum cv. ‘Talent’; details: POSTEMERGENCE, 0 to 100 scale
Text: as §1

wild radish = format: in vivo, Raphanus raphanistrum; details: POSTEMERGENCE, 0 to 100 scale
Text: as §1

field violet = format: in vivo, Viola arvensis; details: POSTEMERGENCE, 0 to 100 scale
Text: as §1

sunflower = format: in vivo, Helianthus annuus cv. ‘Russian Giant’; details: POSTEMERGENCE, 0 to 100 scale
Text: as §1

downy brome = format: in vivo, Bromus tectorum; details: POSTEMERGENCE, 0 to 100 scale
Text: as §1

ryegrass = format: in vivo, Lolium multiflorum; details: POSTEMERGENCE, 0 to 100 scale
Text: as §1

spring wheat = format: in vivo, Triticum aestivum cv. ‘ERA’; details: POSTEMERGENCE, 0 to 100 scale
Text: as §1

galium = format: in vivo, Galium aparine; details: POSTEMERGENCE, 0 to 100 scale; for Galium (1) plant response rating: stage (1) two to three leaves; for Galium (2) plant response rating: stage (2) approximately four leaves or initial tillering
Text: as §1

wild buckwheat = format: in vivo, Polygonum convolvulus; details: POSTEMERGENCE, 0 to 100 scale
Text: as §1

winter barley = format: in vivo, Hordeum vulgare cv. ‘Igri’; details: POSTEMERGENCE, 0 to 100 scale
Text: as §1

sugar beet = format: in vivo, Beta vulgaris cv. ‘USl’; details: POSTEMERGENCE, 0 to 100 scale
Text: as §1

chickweed = format: in vivo, Stellaria media; details: POSTEMERGENCE, 0 to 100 scale
Text: as §1

speedwell = format: in vivo, Veronica persica; details: POSTEMERGENCE, 0 to 100 scale
Text: as §1

With `C#CC(C)Oc1cc(-c2nn3c(c2Cl)CCCC3)c(F)cc1Cl` (centres unmarked) [Compound 36] the “Blackgrass (1) plant response rating” value (blackgrass; Rate 4 g/ha) was 0, the “Blackgrass (2) plant response rating” value (blackgrass; Rate 4 g/ha) was 0 and the “Blackgrass (1) plant response rating” value (blackgrass; Rate 8 g/ha) was 0. For the same compound, the “Blackgrass (2) plant response rating” value (blackgrass; Rate 8 g/ha) was 0, the “Blackgrass (1) plant response rating” value (blackgrass; Rate 16 g/ha) was 0 and the “Blackgrass (2) plant response rating” value (blackgrass; Rate 16 g/ha) was 10. For the same compound, the “Blackgrass (1) plant response rating” value (blackgrass; Rate 32 g/ha) was 5, the “Blackgrass (2) plant response rating” value (blackgrass; Rate 32 g/ha) was 20 and the “Wheat (Winter) plant response rating” value (winter wheat; Rate 4 g/ha) was 20. The “Wheat (Winter) plant response rating” value (winter wheat; Rate 8 g/ha) was 20, the “Wheat (Winter) plant response rating” value (winter wheat; Rate 16 g/ha) was 20 and the “Wheat (Winter) plant response rating” value (winter wheat; Rate 32 g/ha) was 50. The “Wild radish plant response rating” value (wild radish; Rate 4 g/ha) was 100, the “Wild radish plant response rating” value (wild radish; Rate 8 g/ha) was 100 and the “Wild radish plant response rating” value (wild radish; Rate 16 g/ha) was 100. For the same compound, the “Wild radish plant response rating” value (wild radish; Rate 32 g/ha) was 100, the “Field violet plant response rating” value (field violet; Rate 4 g/ha) was 100 and the “Field violet plant response rating” value (field violet; Rate 8 g/ha) was 100. The “Field violet plant response rating” value (field violet; Rate 16 g/ha) was 100, the “Field violet plant response rating” value (field violet; Rate 32 g/ha) was 100 and the “Sunflower plant response rating” value (sunflower; Rate 4 g/ha) was 0. For the same compound, the “Sunflower plant response rating” value (sunflower; Rate 8 g/ha) was 40, the “Sunflower plant response rating” value (sunflower; Rate 16 g/ha) was 50 and the “Sunflower plant response rating” value (sunflower; Rate 32 g/ha) was 60. For the same compound, the “Downy brome plant response rating” value (downy brome; Rate 4 g/ha) was 0, the “Downy brome plant response rating” value (downy brome; Rate 8 g/ha) was 0 and the “Downy brome plant response rating” value (downy brome; Rate 16 g/ha) was 0. For the same compound, the “Downy brome plant response rating” value (downy brome; Rate 32 g/ha) was 5, the “Ryegrass plant response rating” value (ryegrass; Rate 4 g/ha) was 0 and the “Ryegrass plant response rating” value (ryegrass; Rate 8 g/ha) was 10. The “Ryegrass plant response rating” value (ryegrass; Rate 16 g/ha) was 20, the “Ryegrass plant response rating” value (ryegrass; Rate 32 g/ha) was 35 and the “Wheat (Spring) plant response rating” value (spring wheat; Rate 4 g/ha) was 15. The “Wheat (Spring) plant response rating” value (spring wheat; Rate 8 g/ha) was 15, the “Wheat (Spring) plant response rating” value (spring wheat; Rate 16 g/ha) was 15 and the “Wheat (Spring) plant response rating” value (spring wheat; Rate 32 g/ha) was 20. For the same compound, the “Galium (1) plant response rating” value (galium; Rate 4 g/ha) was 20, the “Galium (2) plant response rating” value (galium; Rate 4 g/ha) was 40 and the “Galium (1) plant response rating” value (galium; Rate 8 g/ha) was 50. For the same compound, the “Galium (2) plant response rating” value (galium; Rate 8 g/ha) was 60, the “Galium (1) plant response rating” value (galium; Rate 16 g/ha) was 50 and the “Galium (2) plant response rating” value (galium; Rate 16 g/ha) was 60. The “Galium (1) plant response rating” value (galium; Rate 32 g/ha) was 60, the “Galium (2) plant response rating” value (galium; Rate 32 g/ha) was 70 and the “Wild buckwheat plant response rating” value (wild buckwheat; Rate 16 g/ha) was 100. For the same compound, the “Wild buckwheat plant response rating” value (wild buckwheat; Rate 32 g/ha) was 100, the “Winter Barley plant response rating” value (winter barley; Rate 4 g/ha) was 20 and the “Winter Barley plant response rating” value (winter barley; Rate 8 g/ha) was 20. For the same compound, the “Winter Barley plant response rating” value (winter barley; Rate 16 g/ha) was 20, the “Winter Barley plant response rating” value (winter barley; Rate 32 g/ha) was 25 and the “Sugar beet plant response rating” value (sugar beet; Rate 4 g/ha) was 100. For the same compound, the “Sugar beet plant response rating” value (sugar beet; Rate 8 g/ha) was 100, the “Sugar beet plant response rating” value (sugar beet; Rate 16 g/ha) was 100 and the “Sugar beet plant response rating” value (sugar beet; Rate 32 g/ha) was 100. For the same compound, the “Chickweed plant response rating” value (chickweed; Rate 4 g/ha) was 50, the “Chickweed plant response rating” value (chickweed; Rate 8 g/ha) was 100 and the “Chickweed plant response rating” value (chickweed; Rate 16 g/ha) was 100. For the same compound, the “Chickweed plant response rating” value (chickweed; Rate 32 g/ha) was 100, the “Persn Speedwell plant response rating” value (speedwell; Rate 4 g/ha) was 100 and the “Persn Speedwell plant response rating” value (speedwell; Rate 8 g/ha) was 100. For the same compound, the “Persn Speedwell plant response rating” value (speedwell; Rate 16 g/ha) was 100 and the “Persn Speedwell plant response rating” value (speedwell; Rate 32 g/ha) was 100.

In the case of `CCOC(=O)COc1cc(-c2nn3c(c2Cl)CCCC3)c(F)cc1Cl` [Compound 42], the “Blackgrass (1) plant response rating” value (blackgrass; Rate 2 g/ha) was 0, the “Blackgrass (2) plant response rating” value (blackgrass; Rate 2 g/ha) was 0 and the “Blackgrass (1) plant response rating” value (blackgrass; Rate 4 g/ha) was 0. For the same compound, the “Blackgrass (2) plant response rating” value (blackgrass; Rate 4 g/ha) was 0, the “Blackgrass (1) plant response rating” value (blackgrass; Rate 8 g/ha) was 0 and the “Blackgrass (2) plant response rating” value (blackgrass; Rate 8 g/ha) was 0. The “Blackgrass (1) plant response rating” value (blackgrass; Rate 16 g/ha) was 0, the “Blackgrass (2) plant response rating” value (blackgrass; Rate 16 g/ha) was 0 and the “Blackgrass (1) plant response rating” value (blackgrass; Rate 32 g/ha) was 0. For the same compound, the “Blackgrass (2) plant response rating” value (blackgrass; Rate 32 g/ha) was 0, the “Wheat (Winter) plant response rating” value (winter wheat; Rate 2 g/ha) was 0 and the “Wheat (Winter) plant response rating” value (winter wheat; Rate 4 g/ha) was 0. The “Wheat (Winter) plant response rating” value (winter wheat; Rate 8 g/ha) was 10, the “Wheat (Winter) plant response rating” value (winter wheat; Rate 16 g/ha) was 10 and the “Wheat (Winter) plant response rating” value (winter wheat; Rate 32 g/ha) was 10. The “Wild radish plant response rating” value (wild radish; Rate 2 g/ha) was 0, the “Wild radish plant response rating” value (wild radish; Rate 4 g/ha) was 0 and the “Wild radish plant response rating” value (wild radish; Rate 8 g/ha) was 10. For the same compound, the “Wild radish plant response rating” value (wild radish; Rate 16 g/ha) was 20, the “Wild radish plant response rating” value (wild radish; Rate 32 g/ha) was 20 and the “Field violet plant response rating” value (field violet; Rate 2 g/ha) was 0. For the same compound, the “Field violet plant response rating” value (field violet; Rate 4 g/ha) was 0, the “Field violet plant response rating” value (field violet; Rate 8 g/ha) was 10 and the “Field violet plant response rating” value (field violet; Rate 16 g/ha) was 70. The “Field violet plant response rating” value (field violet; Rate 32 g/ha) was 80, the “Sunflower plant response rating” value (sunflower; Rate 2 g/ha) was 0 and the “Sunflower plant response rating” value (sunflower; Rate 4 g/ha) was 20. The “Sunflower plant response rating” value (sunflower; Rate 8 g/ha) was 30, the “Sunflower plant response rating” value (sunflower; Rate 16 g/ha) was 60 and the “Sunflower plant response rating” value (sunflower; Rate 32 g/ha) was 100. For the same compound, the “Downy brome plant response rating” value (downy brome; Rate 2 g/ha) was 0, the “Downy brome plant response rating” value (downy brome; Rate 4 g/ha) was 0 and the “Downy brome plant response rating” value (downy brome; Rate 8 g/ha) was 0. The “Downy brome plant response rating” value (downy brome; Rate 16 g/ha) was 0, the “Downy brome plant response rating” value (downy brome; Rate 32 g/ha) was 0 and the “Ryegrass plant response rating” value (ryegrass; Rate 2 g/ha) was 0. The “Ryegrass plant response rating” value (ryegrass; Rate 4 g/ha) was 0, the “Ryegrass plant response rating” value (ryegrass; Rate 8 g/ha) was 0 and the “Ryegrass plant response rating” value (ryegrass; Rate 16 g/ha) was 0. For the same compound, the “Ryegrass plant response rating” value (ryegrass; Rate 32 g/ha) was 30, the “Wheat (Spring) plant response rating” value (spring wheat; Rate 2 g/ha) was 0 and the “Wheat (Spring) plant response rating” value (spring wheat; Rate 4 g/ha) was 0. The “Wheat (Spring) plant response rating” value (spring wheat; Rate 8 g/ha) was 0, the “Wheat (Spring) plant response rating” value (spring wheat; Rate 16 g/ha) was 10 and the “Wheat (Spring) plant response rating” value (spring wheat; Rate 32 g/ha) was 10. For the same compound, the “Galium (1) plant response rating” value (galium; Rate 2 g/ha) was 0, the “Galium (2) plant response rating” value (galium; Rate 2 g/ha) was 0 and the “Galium (1) plant response rating” value (galium; Rate 4 g/ha) was 0. For the same compound, the “Galium (2) plant response rating” value (galium; Rate 4 g/ha) was 0, the “Galium (1) plant response rating” value (galium; Rate 8 g/ha) was 40 and the “Galium (2) plant response rating” value (galium; Rate 8 g/ha) was 30. The “Galium (1) plant response rating” value (galium; Rate 16 g/ha) was 40, the “Galium (2) plant response rating” value (galium; Rate 16 g/ha) was 60 and the “Galium (1) plant response rating” value (galium; Rate 32 g/ha) was 60. The “Galium (2) plant response rating” value (galium; Rate 32 g/ha) was 60, the “Wild buckwheat plant response rating” value (wild buckwheat; Rate 2 g/ha) was 60 and the “Wild buckwheat plant response rating” value (wild buckwheat; Rate 4 g/ha) was 60. For the same compound, the “Wild buckwheat plant response rating” value (wild buckwheat; Rate 8 g/ha) was 100, the “Wild buckwheat plant response rating” value (wild buckwheat; Rate 16 g/ha) was 100 and the “Winter Barley plant response rating” value (winter barley; Rate 2 g/ha) was 10. For the same compound, the “Winter Barley plant response rating” value (winter barley; Rate 4 g/ha) was 10, the “Winter Barley plant response rating” value (winter barley; Rate 8 g/ha) was 10 and the “Winter Barley plant response rating” value (winter barley; Rate 16 g/ha) was 10. The “Winter Barley plant response rating” value (winter barley; Rate 32 g/ha) was 10, the “Sugar beet plant response rating” value (sugar beet; Rate 2 g/ha) was 100 and the “Sugar beet plant response rating” value (sugar beet; Rate 8 g/ha) was 100. The “Sugar beet plant response rating” value (sugar beet; Rate 16 g/ha) was 100, the “Sugar beet plant response rating” value (sugar beet; Rate 32 g/ha) was 100 and the “Chickweed plant response rating” value (chickweed; Rate 2 g/ha) was 0. The “Chickweed plant response rating” value (chickweed; Rate 4 g/ha) was 0, the “Chickweed plant response rating” value (chickweed; Rate 8 g/ha) was 0 and the “Chickweed plant response rating” value (chickweed; Rate 16 g/ha) was 0. For the same compound, the “Chickweed plant response rating” value (chickweed; Rate 32 g/ha) was 0, the “Persn Speedwell plant response rating” value (speedwell; Rate 2 g/ha) was 100 and the “Persn Speedwell plant response rating” value (speedwell; Rate 4 g/ha) was 100. For the same compound, the “Persn Speedwell plant response rating” value (speedwell; Rate 8 g/ha) was 100, the “Persn Speedwell plant response rating” value (speedwell; Rate 16 g/ha) was 100 and the “Persn Speedwell plant response rating” value (speedwell; Rate 32 g/ha) was 100.

From patent publication US6358885B1, “Substituted phenylheterocyclic herbicides” (Mississippi State University, priority 1992, dated 2002)
